This note sets out measurements from patent US7541368B2, “Pyrazoles as inhibitors of tumor necrosis factor” (Aventis Pharmaceuticals Inc., priority 2003, dated 2009).

The structures appear in SMILES notation.

This assay deals with TNF-alpha release in THP-1 cells. Put plainly: LPS-induced TNF-alpha release in THP-1 cells. Type of assay: cell-based. The note with it: Homo sapiens, THP-1, LPS-stimulated THP-1 cells; read-out: 50% inhibition in the LPS-induced TNF-alpha release in THP-1 cells assay at concentrations within the range. A digest of the protocol:
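TNF-alpha in supernatants was quantified by sandwich ELISA against a log/log recombinant standard curve (0.125-16 ng/ml). Before this, THP-1 cells (1×10^6 cells/ml, serum-reduced) received compound at 1×10^−9 to 1×10^−6 M in 0.3% DMSO for 1 h, then LPS 20 μg/ml for 18 h.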

Turning to `Cc1ccc(-n2nc(C(C)(C)C)cc2NC(=O)Nc2cccc(CC3CCN(C(=O)c4ccc(OC(F)F)cc4)CC3)c2)cc1` [Compound A111, 1-(5-tert-Butyl-2-p-tolyl-2H-pyrazol-3-yl)-3-{3-[1-(4-difluoromethoxy-benzoyl)-piperidin-4-ylmethyl]-phenyl}-urea], the IC50 lay in the range of 0.01 to 0.5 µM.
As for `CO[C@H](C(=O)N1CCC(Cc2cccc(NC(=O)Nc3cc(C(C)(C)C)nn3-c3ccc(C)cc3)c2)CC1)c1ccccc1` [Compound A4, 1-(5-tert-Butyl-2-p-tolyl-2H-pyrazol-3-yl)-3-{3-[1-((S)-2-methoxy-2-phenyl-acetyl)-piperidin-4-ylmethyl]-phenyl}-urea], the IC50 fell in the range of 0.01 to 0.5 µM.
On to `Cc1ccc(-n2nc(C(C)(C)C)cc2NC(=O)Nc2cccc(CC3CCN(C(=O)c4n[nH]c5ccccc45)CC3)c2)cc1` [Compound A167, 1-(5-tert-Butyl-2-p-tolyl-2H-pyrazol-3-yl)-3-{3-[1-(1H-indazole-3-carbonyl)-piperidin-4-ylmethyl]-phenyl}-urea], for which the IC50 was 0.01 to 0.5 µM.
On to `Cc1ccc(-n2nc(C(C)(C)C)cc2NC(=O)Nc2ccc(CC3CCN(C(=O)c4cc(C)c(C)o4)CC3)cc2)cc1` [Compound A298, 1-(5-tert-Butyl-2-p-tolyl-2H-pyrazol-3-yl)-3-{4-[1-(4,5-dimethyl-furan-2-carbonyl)-piperidin-4-ylmethyl]-phenyl}-urea], for which the IC50 was in the range of 0.01 to 0.5 µM.
On to `Cc1ccc(-n2nc(C(C)(C)C)cc2NC(=O)Nc2cccc(CC3CCN(C(=O)c4ccc(-c5cnco5)cc4)CC3)c2)cc1` [Compound A106, 1-(5-tert-Butyl-2-p-tolyl-2H-pyrazol-3-yl)-3-{3-[1-(4-oxazol-5-yl-benzoyl)-piperidin-4-ylmethyl]-phenyl}-urea], for which the IC50 was 0.01 to 0.5 µM.
For `Cc1ccc(-n2nc(C(C)(C)C)cc2NC(=O)Nc2cccc(CC3CCN(C(=O)Cc4ccccc4C)CC3)c2)cc1` [Compound A182, 1-(5-tert-Butyl-2-p-tolyl-2H-pyrazol-3-yl)-3-{3-[1-(2-o-tolyl-acetyl)-piperidin-4-ylmethyl]-phenyl}-urea], the IC50 lay within 0.01 to 0.5 µM.
Regarding `Cc1ccc(-n2nc(C(C)(C)C)cc2NC(=O)Nc2ccc(CC3CCN(C(=O)c4ccc5cnccc5n4)CC3)cc2)cc1` [Compound A197, 1-(5-tert-Butyl-2-p-tolyl-2H-pyrazol-3-yl)-3-{4-[1-([1,6]naphthyridine-2-carbonyl)-piperidin-4-ylmethyl]-phenyl}-urea], the IC50 is 0.01 to 0.5 µM.
For `Cc1ccc(-n2nc(C(C)(C)C)cc2NC(=O)Nc2cccc(CC3CCN(C(=O)c4ccc(CO)cc4)CC3)c2)cc1` [Compound A118, 1-(5-tert-Butyl-2-p-tolyl-2H-pyrazol-3-yl)-3-{3-[1-(4-hydroxymethyl-benzoyl)-piperidin-4-ylmethyl]-phenyl}-urea], the IC50 lay in the range of 0.01 to 0.5 µM.
For the compound `COc1ccccc1CC(=O)N1CCC(Cc2cccc(NC(=O)Nc3cc(C(C)(C)C)nn3-c3ccc(C)cc3)c2)CC1` [Compound A50, 1-(5-tert-Butyl-2-p-tolyl-2H-pyrazol-3-yl)-3-(3-{1-[2-(2-methoxy-phenyl)-acetyl]-piperidin-4-ylmethyl}-phenyl)-urea], the IC50 lay within 0.01 to 0.5 µM.
In the case of `COc1ccc(CC(=O)N2CCC(Cc3ccc(NC(=O)Nc4cc(C(C)(C)C)nn4-c4ccc(C)cc4)cc3)CC2)cc1OC` [Compound A262, 1-(5-tert-Butyl-2-p-tolyl-2H-pyrazol-3-yl)-3-(4-{1-[2-(3,4-dimethoxy-phenyl)-acetyl]-piperidin-4-ylmethyl}-phenyl)-urea], the IC50 lay within 0.01 to 0.5 µM.
In the case of `Cc1ccc(-n2nc(C(C)(C)C)cc2NC(=O)Nc2ccc(CC3CCN(C(=O)c4ccc(N)c(OC(F)(F)F)c4)CC3)cc2)cc1` [Compound A309, 1-{4-[1-(4-Amino-3-trifluoromethoxy-benzoyl)-piperidin-4-ylmethyl]-phenyl}-3-(5-tert-butyl-2-p-tolyl-2H-pyrazol-3-yl)-urea] it was 0.01 to 0.5 µM; in that of `Cc1ccc(-n2nc(C(C)(C)C)cc2NC(=O)Nc2ccc(CC3CCN(C(=O)CC4CCCC4)CC3)cc2)cc1` [Compound A349, 1-(5-tert-Butyl-2-p-tolyl-2H-pyrazol-3-yl)-3-{4-[1-(2-cyclopentyl-acetyl)-piperidin-4-ylmethyl]-phenyl}-urea], 0.01 to 0.5 µM.
For the compound `COc1cc(N)c(Cl)cc1C(=O)N1C2CCC1CC(Cc1ccc(NC(=O)Nc3cc(C(C)(C)C)nn3-c3ccc(C)cc3)cc1)C2` (stereo not shown) [Compound A1441, 1-{4-[8-(4-Amino-5-chloro-2-methoxy-benzoyl)-8-aza-bicyclo[3.2.1]oct-3-ylmethyl]-phenyl}-3-(5-tert-butyl-2-p-tolyl-2H-pyrazol-3-yl)-urea], the IC50 lay within 0.01 to 0.5 µM.
With `Cc1ccc(-n2nc(C(C)(C)C)cc2NC(=O)Nc2cccc(CC3CCN(C(=O)c4cccnc4N)CC3)c2)cc1` [Compound A39, 1-{3-[1-(2-Amino-pyridine-3-carbonyl)-piperidin-4-ylmethyl]-phenyl}-3-(5-tert-butyl-2-p-tolyl-2H-pyrazol-3-yl)-urea], the IC50 lay in the range of 0.01 to 0.5 µM.
The value for `Cc1ccc(-n2nc(C(C)(C)C)cc2NC(=O)Nc2ccc(CC3CCN(C(=O)c4cnc5ccccc5c4)CC3)cc2)cc1` [Compound A384, 1-(5-tert-Butyl-2-p-tolyl-2H-pyrazol-3-yl)-3-{4-[1-(quinoline-3-carbonyl)-piperidin-4-ylmethyl]-phenyl}-urea] was 0.01 to 0.5 µM; that for `Cc1ccc(-n2nc(C(C)(C)C)cc2NC(=O)Nc2ccc(CC3CC4CCC(C3)N4C(=O)Cc3ccc(F)cc3F)cc2)cc1` (stereo not shown) [Compound A1364, 1-(5-tert-Butyl-2-p-tolyl-2H-pyrazol-3-yl)-3-(4-{8-[2-(2,4-difluoro-phenyl)-acetyl]-8-aza-bicyclo[3.2.1]oct-3-ylmethyl}-phenyl)-urea] was 0.01 to 0.5 µM; that for `COc1cc(OC)cc(C(=O)N2CCC(Cc3cccc(NC(=O)Nc4cc(C(C)(C)C)nn4-c4ccc(C)cc4)c3)CC2)c1` [Compound A73, 1-(5-tert-Butyl-2-p-tolyl-2H-pyrazol-3-yl)-3-{3-[1-(3,5-dimethoxy-benzoyl)-piperidin-4-ylmethyl]-phenyl}-urea] was 0.01 to 0.5 µM.
`Cc1ccc(-n2nc(C(C)(C)C)cc2NC(=O)Nc2cccc(CC3CCN(C(=O)c4ccoc4C)CC3)c2)cc1` [Compound A52, 1-(5-tert-Butyl-2-p-tolyl-2H-pyrazol-3-yl)-3-{3-[1-(2-methyl-furan-3-carbonyl)-piperidin-4-ylmethyl]-phenyl}-urea]: the IC50 lay in the range of 0.01 to 0.5 µM.
On to `Cc1ccc(-n2nc(C(C)(C)C)cc2NC(=O)Nc2ccc(CC3CCN(C(=O)Cc4ccccc4F)CC3)cc2)cc1` [Compound A236, 1-(5-tert-Butyl-2-p-tolyl-2H-pyrazol-3-yl)-3-(4-{1-[2-(2-fluoro-phenyl)-acetyl]-piperidin-4-ylmethyl}-phenyl)-urea], for which the IC50 is 0.01 to 0.5 µM.
Consider `Cc1ccc(-n2nc(C(C)(C)C)cc2NC(=O)Nc2ccc(CC3CCN(C(=O)c4ccccn4)CC3)cc2)cc1` [Compound A380, 1-(5-tert-Butyl-2-p-tolyl-2H-pyrazol-3-yl)-3-{4-[1-(pyridine-2-carbonyl)-piperidin-4-ylmethyl]-phenyl}-urea], for which the IC50 was in the range of 0.01 to 0.5 µM.
Take `Cc1ccc(-n2nc(C(C)(C)C)cc2NC(=O)Nc2ccc(CC3CCN(C(=O)c4csc(-c5cccnc5)n4)CC3)cc2)cc1` [Compound A225, 1-(5-tert-Butyl-2-p-tolyl-2H-pyrazol-3-yl)-3-{4-[1-(2-pyridin-3-yl-thiazole-4-carbonyl)-piperidin-4-ylmethyl]-phenyl}-urea]: the IC50 is 0.01 to 0.5 µM.
As to `Cc1ccc(-n2nc(C(C)(C)C)cc2NC(=O)Nc2ccc(CC3CCN(C(=O)c4ccc(CO)cc4)CC3)cc2)cc1` [Compound A315, 1-(5-tert-Butyl-2-p-tolyl-2H-pyrazol-3-yl)-3-{4-[1-(4-hydroxymethyl-benzoyl)-piperidin-4-ylmethyl]-phenyl}-urea], the IC50 lay in the range of 0.01 to 0.5 µM.
In the case of `Cc1ccc(-n2nc(C(C)(C)C)cc2NC(=O)Nc2ccc(CC3CCN(C(=O)Cc4ccc(F)cc4)CC3)cc2)cc1` [Compound A314, 1-(5-tert-Butyl-2-p-tolyl-2H-pyrazol-3-yl)-3-(4-{1-[2-(4-fluoro-phenyl)-acetyl]-piperidin-4-ylmethyl}-phenyl)-urea] it was 0.01 to 0.5 µM; in that of `Cc1ccc(-n2nc(C(C)(C)C)cc2NC(=O)Nc2ccc(CC3CCN(C(=O)Nc4ccc5c(c4)OCO5)CC3)cc2)cc1` [Compound A429, 4-{4-[3-(5-tert-Butyl-2-p-tolyl-2H-pyrazol-3-yl)-ureido]-benzyl}-piperidine-1-carboxylic acid benzo[1,3]dioxol-5-ylamide], 0.01 to 0.5 µM.
With `Cc1ccc(-n2nc(C(C)(C)C)cc2NC(=O)Nc2cccc(CC3CCN(C(=O)c4ccsc4)CC3)c2)cc1` [Compound A99, 1-(5-tert-Butyl-2-p-tolyl-2H-pyrazol-3-yl)-3-{3-[1-(thiophene-3-carbonyl)-piperidin-4-ylmethyl]-phenyl}-urea], the IC50 lay within 0.01 to 0.5 µM.
Take `Cc1ccc(-n2nc(C(C)(C)C)cc2NC(=O)Nc2cccc(CC3CCN(C(=O)c4ccco4)CC3)c2)cc1` [Compound A45, 1-(5-tert-Butyl-2-p-tolyl-2H-pyrazol-3-yl)-3-{3-[1-(furan-2-carbonyl)-piperidin-4-ylmethyl]-phenyl}-urea]: the IC50 was in the range of 0.01 to 0.5 µM.
For `Cc1ccc(-n2nc(C(C)(C)C)cc2NC(=O)Nc2cccc(CC3CCN(C(=O)c4ccc(N)nc4)CC3)c2)cc1` [Compound A144, 1-{3-[1-(6-Amino-pyridine-3-carbonyl)-piperidin-4-ylmethyl]-phenyl}-3-(5-tert-butyl-2-p-tolyl-2H-pyrazol-3-yl)-urea], the IC50 fell in the range of 0.01 to 0.5 µM.
The value for `Cc1ccc(-n2nc(C(C)(C)C)cc2NC(=O)Nc2ccc(CC3CCN(C(=O)C4CCCO4)CC3)cc2)cc1` (stereo not shown) [Compound A258, 1-(5-tert-Butyl-2-p-tolyl-2H-pyrazol-3-yl)-3-{4-[1-(tetrahydro-furan-2-carbonyl)-piperidin-4-ylmethyl]-phenyl}-urea] was 0.01 to 0.5 µM.
